Source: ChEMBL document CHEMBL2424589, “Novel hydroxyl tricyclics (e.g., GSK966587) as potent inhibitors of bacterial type IIA topoisomerases” (Bioorg Med Chem Lett, 2013)
Values after ≈ are worked out from the molar mass of the structure shown.

Legend:
Canis familiaris [1] = species on record: Canis familiaris; test: Toxicity in dog assessed as hepatic portal tract lesions measured for 14 days by GLP assay; format: organism-based, Canis lupus familiaris; conditions: in vivo, 336 h
[2] = Cmax in nonneutropenic mouse infected with Streptococcus pneumoniae 1629 at 50 mg/kg, po bid; format: ADME, organism-based; set-up: dose 50 mg/kg, route oral; conditions: in vivo
[3] = AUC in nonneutropenic mouse infected with Streptococcus pneumoniae 1629 at 50 mg/kg, po bid measured per day; format: ADME, organism-based; set-up: dose 50 mg/kg, route oral; conditions: plasma
Streptococcus pneumoniae [4] = test: Antibacterial activity against Streptococcus pneumoniae 1629 infected in nonneutropenic mouse assessed as reduction in bacterial burden in lungs at 100 mg/kg, po bid after 48 hrs; format: functional, Lung
Streptococcus pneumoniae [5] = test: Antibacterial activity against Streptococcus pneumoniae 1629 infected in nonneutropenic mouse assessed as reduction in bacterial burden in lungs at 50 mg/kg, po bid after 48 hrs relative to 1 hr nontreated control; format: functional, Lung
Liver microsomes = test: Intrinsic clearance in human liver microsomes; format: ADME, Microsome
[6] = Intrinsic clearance in monkey liver microsomes; format: ADME, Macaca mulatta, Microsome; conditions: rhesus monkey
Liver = test: Intrinsic clearance in dog liver microsomes; format: ADME, Canis lupus familiaris, Microsome
[7] = Plasma protein binding in human; format: ADME, cell-free; conditions: read-out: PPB (converted)
[8] = Plasma protein binding in monkey; format: ADME, cell-free, Macaca mulatta; conditions: rhesus monkey, read-out: PPB (converted)
[9] = Plasma protein binding in dog; format: ADME, cell-free, Canis lupus familiaris; conditions: read-out: PPB (converted)
[10] = Plasma protein binding in rat; format: ADME, cell-free; conditions: read-out: PPB (converted)
Cynomolgus monkey [11] = test: Renal clerance in cynomolgus monkey relative to total clearance; format: ADME, organism-based, Macaca fascicularis, Kidney; conditions: in vivo
Canis familiaris [12] = species on record: Canis familiaris; test: Renal clerance in Beagle dog relative to total clearance; format: ADME, organism-based, Canis lupus familiaris, Kidney; conditions: in vivo
Cynomolgus monkey [13] = test: Blood clerance in cynomolgus monkey relative to hepatic blood flow; format: ADME, organism-based, Macaca fascicularis; conditions: in vivo
Canis familiaris [14] = species on record: Canis familiaris; test: Blood clerance in Beagle dog relative to hepatic blood flow; format: ADME, organism-based, Canis lupus familiaris; conditions: in vivo
Rattus norvegicus = species on record: Rattus norvegicus; test: Blood clerance in Sprague-Dawley rat relative to hepatic blood flow; format: ADME, organism-based; conditions: in vivo
[15] = Oral bioavailability in cynomolgus monkey at 5 mg/kg; format: ADME, organism-based, Macaca fascicularis; conditions: in vivo
[16] = Oral bioavailability in Beagle dog at 5 mg/kg; format: ADME, organism-based, Canis lupus familiaris; conditions: in vivo
[17] = AUC in cynomolgus monkey at 5 mg/kg, po; format: ADME, organism-based, Macaca fascicularis; set-up: dose 5 mg/kg, route oral; conditions: plasma
[18] = Oral bioavailability in Sprague-Dawley rat at 5 mg/kg; format: ADME, organism-based; conditions: in vivo
[19] = AUC in Beagle dog at 5 mg/kg, po; format: ADME, organism-based, Canis lupus familiaris; set-up: dose 5 mg/kg, route oral; conditions: plasma
[20] = AUC in Sprague-Dawley rat at 5 mg/kg, po; format: ADME, organism-based; set-up: dose 5 mg/kg, route oral; conditions: plasma
[21] = Half life in Beagle dog at 3 mg/kg, iv; format: ADME, organism-based, Canis lupus familiaris; set-up: dose 3 mg/kg, route intravenous; conditions: in vivo
[22] = Half life in cynomolgus monkey at 3 mg/kg, iv; format: ADME, organism-based, Macaca fascicularis; set-up: dose 3 mg/kg, route intravenous; conditions: in vivo
[23] = Half life in Sprague-Dawley rat at 3 mg/kg, iv; format: ADME, organism-based; set-up: dose 3 mg/kg, route intravenous; conditions: in vivo
[24] = Volume of distribution at steady state in cynomolgus monkey at 3 mg/kg, iv; format: ADME, organism-based, Macaca fascicularis; set-up: dose 3 mg/kg, route intravenous; conditions: in vivo, read-out: Vdss
[25] = Volume of distribution at steady state in Beagle dog at 3 mg/kg, iv; format: ADME, organism-based, Canis lupus familiaris; set-up: dose 3 mg/kg, route intravenous; conditions: in vivo, read-out: Vdss
[26] = Volume of distribution at steady state in Sprague-Dawley rat at 3 mg/kg, iv; format: ADME, organism-based; set-up: dose 3 mg/kg, route intravenous; conditions: in vivo, read-out: Vdss
[27] = Clearance in cynomolgus monkey at 3 mg/kg, iv; format: ADME, organism-based, Macaca fascicularis; set-up: dose 3 mg/kg, route intravenous; conditions: in vivo
[28] = Clearance in Beagle dog at 3 mg/kg, iv; format: ADME, organism-based, Canis lupus familiaris; set-up: dose 3 mg/kg, route intravenous; conditions: in vivo
[29] = Clearance in Sprague-Dawley rat at 3 mg/kg, iv; format: ADME, organism-based; set-up: dose 3 mg/kg, route intravenous; conditions: in vivo
[30] = target: T1, Voltage-gated inwardly rectifying potassium channel KCNH2 (Homo sapiens, UniProt Q12809); test: Inhibition of human ERG transfected in HEK293 cells by patch clamp assay; format: cell-based
T1 sequence (Q12809 whole entry): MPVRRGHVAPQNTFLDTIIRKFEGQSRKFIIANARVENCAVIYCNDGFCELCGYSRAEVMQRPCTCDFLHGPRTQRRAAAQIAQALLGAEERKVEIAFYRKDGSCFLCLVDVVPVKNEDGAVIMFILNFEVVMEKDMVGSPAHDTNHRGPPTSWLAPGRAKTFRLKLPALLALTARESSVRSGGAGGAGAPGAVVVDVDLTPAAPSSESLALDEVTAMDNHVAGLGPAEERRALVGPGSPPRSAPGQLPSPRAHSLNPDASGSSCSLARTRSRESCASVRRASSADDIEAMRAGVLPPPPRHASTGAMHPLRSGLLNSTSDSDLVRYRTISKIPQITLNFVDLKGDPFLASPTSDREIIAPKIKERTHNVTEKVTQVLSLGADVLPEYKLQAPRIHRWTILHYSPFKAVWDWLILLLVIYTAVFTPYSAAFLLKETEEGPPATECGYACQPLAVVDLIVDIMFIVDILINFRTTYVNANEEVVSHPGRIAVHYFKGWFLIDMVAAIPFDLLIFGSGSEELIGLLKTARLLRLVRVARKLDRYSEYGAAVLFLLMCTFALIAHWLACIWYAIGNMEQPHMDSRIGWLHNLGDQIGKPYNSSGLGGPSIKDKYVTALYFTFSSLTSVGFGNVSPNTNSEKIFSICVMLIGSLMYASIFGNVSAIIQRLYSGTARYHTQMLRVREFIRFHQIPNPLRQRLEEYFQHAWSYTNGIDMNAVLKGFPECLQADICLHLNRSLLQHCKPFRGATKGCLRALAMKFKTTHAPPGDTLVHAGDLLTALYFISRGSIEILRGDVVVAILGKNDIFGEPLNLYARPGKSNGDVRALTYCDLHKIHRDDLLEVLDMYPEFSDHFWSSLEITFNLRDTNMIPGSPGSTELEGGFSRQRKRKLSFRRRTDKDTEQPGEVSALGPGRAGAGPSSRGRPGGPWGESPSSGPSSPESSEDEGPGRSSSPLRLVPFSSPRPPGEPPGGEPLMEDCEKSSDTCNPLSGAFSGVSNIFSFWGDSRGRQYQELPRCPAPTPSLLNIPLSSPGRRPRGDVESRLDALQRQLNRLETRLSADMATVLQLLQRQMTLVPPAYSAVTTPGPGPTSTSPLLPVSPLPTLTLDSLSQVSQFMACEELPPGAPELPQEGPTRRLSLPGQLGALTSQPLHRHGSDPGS

[31] = target: T1, Voltage-gated inwardly rectifying potassium channel KCNH2; test: Inhibition of human ERG by patch clamp assay
Streptococcus pneumoniae [32] = test: Antibacterial activity against Streptococcus pneumoniae 1629 assessed as growth inhibition after 18 to 24 hrs by broth microdilution method; format: functional
Staphylococcus aureus = test: Antibacterial activity against Staphylococcus aureus WCUH-29 assessed as growth inhibition after 18 to 24 hrs by broth microdilution method; format: functional
Haemophilus influenzae = test: Antibacterial activity against Haemophilus influenzae H128 assessed as growth inhibition after 18 to 24 hrs by broth microdilution method; format: functional
[33] = Inhibition of DNA gyrase-dependent DNA replication in toluenized-Haemophilus influenzae cells assessed as ATP-dependent [33P]-TTP incorporation after 30 mins by scintillation proximity assay; conditions: 0.5 h

For `O=c1ccc2ncc(F)c3c2n1C[C@@]3(O)CN1CCC(NCc2cc3c(cn2)OCCO3)CC1`, the Activity (Canis familiaris [1]) was “Toxic”, the Cmax [2] was 8000 ng/mL and the AUC [3] was 50000 ng·h/mL. The log10cfu (Streptococcus pneumoniae [4]) was 1.7, the log10cfu (Streptococcus pneumoniae [5]) was 2 and the CLH (Liver microsomes) was < 0.5 mL/min/g. For the same molecule, the CLH [6] was 1.6 mL/min/g, the CLH (Liver) was < 0.5 mL/min/g and the fraction unbound [7] was 0.777. For the same molecule, the fraction unbound [8] was 0.781, the fraction unbound [9] was 0.823 and the fraction unbound [10] was 0.577. For the same molecule, the CL (Cynomolgus monkey [11]) was 15%, the CL (Canis familiaris [12]) was 27% and the CL (Cynomolgus monkey [13]) was 50%. For the same molecule, the CL (Canis familiaris [14]) was 50%, the CL (Rattus norvegicus) was 100% and the bioavailability [15] was 55%. For the same molecule, the bioavailability [16] was 63%, the AUC [17] was 1920 ng·h/mL and the bioavailability [18] was 34%. For the same molecule, the AUC [19] was 2820 ng·h/mL, the AUC [20] was 460 ng·h/mL and the half-life [21] was 7.1 h. The half-life [22] was 2.3 h, the half-life [23] was 3.1 h and the Vd [24] was 3.4 L/kg. The Vd [25] was 6.4 L/kg, the Vd [26] was 8.6 L/kg and the clearance [27] was 25.1 mL/min/kg. For the same molecule, the clearance [28] was 18.1 mL/min/kg, the clearance [29] was 62.2 mL/min/kg and the IC50 [30] was 310 µM. It also gave an IC50 [31] of 239 µM, an MIC (Streptococcus pneumoniae [32]) of 0.125 µg/mL (≈ 0.267 µM) and an MIC (Staphylococcus aureus) of 0.125 µg/mL (≈ 0.267 µM). For the same molecule, the MIC (Haemophilus influenzae) was 1 µg/mL (≈ 2.14 µM) and the IC50 [33] was 0.035 µg/mL (≈ 0.0749 µM).
For `O=c1ccc2ncc(F)c3c2n1C[C@]3(O)CN1CCC(NCc2cc3c(cn2)OCCO3)CC1`, the Activity (Canis familiaris [1]) was “Non-toxic”, the MIC (Streptococcus pneumoniae [32]) was 4 µg/mL (≈ 8.56 µM) and the MIC (Staphylococcus aureus) was 8 µg/mL (≈ 17.1 µM). For the same molecule, the MIC (Haemophilus influenzae) was > 16 µg/mL and the IC50 [33] was > 1.32 µg/mL.
With `O=c1ccc2ncc(F)c3c2n1C[C@@]3(F)CN1CCC(NCc2cc3c(cn2)OCCO3)CC1` the Activity (Canis familiaris [1]) was “Non-toxic”, the MIC (Streptococcus pneumoniae [32]) was 0.06 µg/mL (≈ 0.128 µM) and the MIC (Staphylococcus aureus) was 0.03 µg/mL (≈ 0.0639 µM). The MIC (Haemophilus influenzae) was 0.5 µg/mL (≈ 1.06 µM) and the IC50 [33] was 0.04 µg/mL (≈ 0.0852 µM).
With `O=c1ccc2ncc(F)c3c2n1C[C@H]3CN1CCC(NCc2cc3c(cn2)OCCO3)CC1` the Activity (Canis familiaris [1]) was “Non-toxic”, the IC50 [30] was 122 µM and the IC50 [31] was 58 µM. For the same molecule, the MIC (Streptococcus pneumoniae [32]) was 0.06 µg/mL (≈ 0.133 µM), the MIC (Staphylococcus aureus) was 0.03 µg/mL (≈ 0.0664 µM) and the MIC (Haemophilus influenzae) was 0.25 µg/mL (≈ 0.554 µM). The IC50 [33] was 0.035 µg/mL (≈ 0.0775 µM).
For `O=c1ccc2ccc(F)c3c2n1C[C@@]3(O)CN1CCC(NCc2cc3c(cn2)OCCO3)CC1`, the Activity (Canis familiaris [1]) was “Non-toxic”, the MIC (Streptococcus pneumoniae [32]) was 0.125 µg/mL (≈ 0.268 µM) and the MIC (Staphylococcus aureus) was 0.06 µg/mL (≈ 0.129 µM). The MIC (Haemophilus influenzae) was 1 µg/mL (≈ 2.14 µM) and the IC50 [33] was 0.071 µg/mL (≈ 0.152 µM).
In the case of `O=c1cnc2ccc(F)c3c2n1C[C@@]3(O)CN1CCC(NCc2cc3c(cn2)OCCO3)CC1`, the Activity (Canis familiaris [1]) is reported as “Non-toxic”, the IC50 [30] is reported as 206 µM and the IC50 [31] is reported as 101 µM. The MIC (Streptococcus pneumoniae [32]) was 0.125 µg/mL (≈ 0.267 µM), the MIC (Staphylococcus aureus) was 0.125 µg/mL (≈ 0.267 µM) and the MIC (Haemophilus influenzae) was 0.5 µg/mL (≈ 1.07 µM). It also gave an IC50 [33] of 0.058 µg/mL (≈ 0.124 µM).
For `O=c1c(F)cc2ncc(F)c3c2n1C[C@@]3(O)CN1CCC(NCc2cc3c(cn2)OCCO3)CC1`, the Activity (Canis familiaris [1]) was “Non-toxic”, the IC50 [31] was 289 µM and the MIC (Streptococcus pneumoniae [32]) was 0.25 µg/mL (≈ 0.515 µM). The MIC (Staphylococcus aureus) was 0.25 µg/mL (≈ 0.515 µM), the MIC (Haemophilus influenzae) was 0.5 µg/mL (≈ 1.03 µM) and the IC50 [33] was 0.037 µg/mL (≈ 0.0762 µM).
In the case of `O=c1ccc2ncc(F)c3c2n1C[C@@]3(O)CN1CCC[C@@H](CNCc2cc3c(cn2)OCCO3)C1`, the Activity (Canis familiaris [1]) is reported as “Non-toxic”, the MIC (Streptococcus pneumoniae [32]) is reported as 4 µg/mL (≈ 8.31 µM) and the MIC (Staphylococcus aureus) is reported as 4 µg/mL (≈ 8.31 µM). For the same molecule, the MIC (Haemophilus influenzae) was 16 µg/mL (≈ 33.2 µM) and the IC50 [33] was 1.21 µg/mL (≈ 2.52 µM).
In the case of `O=c1ccc2ncc(F)c3c2n1C[C@@]3(O)CN1CCO[C@@H](CNCc2cc3c(cn2)OCCO3)C1`, the Activity (Canis familiaris [1]) is reported as “Non-toxic”, the MIC (Streptococcus pneumoniae [32]) is reported as 4 µg/mL (≈ 8.27 µM) and the MIC (Staphylococcus aureus) is reported as > 16 µg/mL. It also gave an MIC (Haemophilus influenzae) of 4 µg/mL (≈ 8.27 µM) and an IC50 [33] of 0.361 µg/mL (≈ 0.747 µM).
